What was measured:
[1] = tested on: streptozotocin (STZ)-induced diabetic model; test: Streptozotocin (STZ)-Induced Model of Diabetic Neuropathy, behavioral tests; type: in vivo, male Sprague-Dawley rats; settings: 30 mg/kg, measured 30 minutes post dose
Description: 250-350 g male Sprague-Dawley rats from appropriate animal resources were used. Type I diabetes was induced by a single injection, (intraperitoneally, intravenously or intramuscularly) of 50-100 mg/kg of streptozotocin (STZ, Sigma Chemicals, St. Louis, Mo. or VWR) freshly dissolved in sodium citrate (0.01 M, pH 4.5). Sham animals were given either saline or same vehicle injection. Following a wait time of about two days, inducement of diabetes was confirmed in STZ-injected rats by measuring the plasma glucose concentrations in blood samples from the tail vein after a fast of 6 hours. […] Other parameters (water intake, food intake, and bodyweight) were monitored before the treatment with a test compound and after the cessation of the treatment.
The analgesic effect of the test compound was expressed as a percent recovery (% Recovery) relative to the sham control group baseline and calculated according to the formula: […]
Rats were placed on the glass surface of a thermal testing apparatus (Model 336, IITC/Life Science Instruments, Woodland Hills, Calif.) and were allowed to acclimate for 10 min before testing on the glass surface at room temperature. […] The paw withdrawal latency was recorded by a digital timer. The thermal threshold was determined as the mean withdrawal latency from two to three consecutive trials of both hindpaws. […]

[2] = tested on: rat streptozotocin-induced model for diabetes; test: Evaluation of Anti-Diabetic Effect in In Vivo Model of Diabetes (chronic dosing, STZ rats)
Description: 250-350 g male Sprague-Dawley rats from appropriate animal resources were used. Type I diabetes was induced by a single injection, (intraperitoneally, intravenously or intramuscularly) of 50-100 mg/kg of streptozotocin (STZ, Sigma Chemicals, St. Louis, Mo. or VWR) freshly dissolved in sodium citrate (0.01 M, pH 4.5). Sham animals were given either saline or same vehicle injection. Following a wait time of about two days, inducement of diabetes was confirmed in STZ-injected rats by measuring the plasma glucose concentrations in blood samples from the tail vein after a fast of 6 hours. The glucose level was assayed using a mini glucose monitor (kit for AlphaTRAK 2 meter, available from Abbott Laboratories). Screening for hyperglycemia in STZ-injected animals was done, with only animals with a final blood glucose level ≧300 mg/dl being selected for the study. Glucose levels in the sham animals remained normal. Other parameters (water intake, food intake, and bodyweight) were monitored before the treatment with a test compound and after the cessation of the treatment.
A Compound provided herein is tested in the rat STZ model of diabetes by chronic administration of the Compound for at least 7 days to evaluate analgesic and antidiabetic effects of the Compound. The analgesic effect of the Compound can be evaluated using behavioral tests (e.g., von Frey test, plantar test, and paw pressure test described herein below). The anti-diabetic effect of the Compound can be evaluated based on the improvement in the glucose level, food intake, water intake in the compound treated group compared to the untreated vehicle group and the normal, non-diabetic sham control group.
Diabetes mellitus was induced in rats as described in paragraph [00327] above.
The baseline glucose levels, daily food and water intake and behavioral tests (von Frey, paw pressure and plantar tests) were measured for each animal once weekly for 28 weeks, and once every 2-4 weeks for an additional 28-30 weeks. At a selected week (started from week 6) for a compound test, diabetic rats were divided into two test groups: a vehicle control group and a test compound treated group (n=10 each group). A sham group (saline only without STZ i.p. injection, n=10) was added as a normal, non-diabetic control group. To minimize animal stress associated with repeated daily handling, the compound treated diabetic group of animals received the test compound at a daily dose of 60 mg/kg in their drinking water containing 2% PEG600 and 1% glycofurol (the test compound concentration in the drinking water was based on the individual animal's average daily water consumption as determined the pre-dosing period, which averaged 0.1-0.11 mg/ml). The vehicle control group received drinking water containing 2% PEG600 and 1% glycofurol without the test compound. The treatment continued for 9 days. On day 10 drinking water with test compound or vehicle (2% PEG600 and 1% glycofurol) was replaced with plain drinking water in all groups. The monitoring of glucose levels, food and water intake as well as behavior tests continued for additional 28-30 weeks. […] A gradual, significant reversal of up to 90% of mechanical allodynia (von Frey test) was achieved after 9 days of treatment.
FIGS. 1-3 show food intake, glucose level, and water intake, respectively, for the vehicle control group, the test compound treated group (compound 49, 60 mg/kg/day), and the sham group. […] The significant reduction of food intake, glucose level, and water intake of the compound treated group compared to the vehicle control group continues through week 52. […] Since the standard deviation in the sham groups are less than 5%, no error bars are shown.

[3] = diabetic rats, 60 mg/kg/day in drinking water for 9 days
[4] = measured on day 11, two days after compound withdrawal

Compound: NC(=O)CNCCCc1cc(Cl)ccc1Oc1cc(F)c(S(=O)(=O)Nc2cscn2)cc1Cl [Compound 49, 2-((3-(5-chloro-2-(2-chloro-5-fluoro-4-(N-(thiazol-4-yl)sulfamoyl)phenoxy)phenyl)propyl)amino)acetamide]
- effect in the tactile allodynia test [1]: no significant effect
- food intake ([2]; diabetic rats, 60 mg/kg/day for 9 days, compared to vehicle control group, continues through week 52 (FIG. 1)): significantly reduced
- glucose level ([2]; diabetic rats, 60 mg/kg/day for 9 days, compared to vehicle control group, continues through week 52 (FIG. 2)): significantly reduced
- water intake ([2]; diabetic rats, 60 mg/kg/day for 9 days, compared to vehicle control group, continues through week 52 (FIG. 3)): significantly reduced
- mechanical pain (paw pressure test) [2, 3]: rapid and sustained improvement
- thermal pain (plantar test) [2, 3]: rapid and sustained improvement
- tachyphylaxis ([2]; diabetic rats, 60 mg/kg/day in drinking water for 9 days, paw pressure and plantar tests): no tachyphylaxis
- reversal of mechanical allodynia (von Frey test) ([2]; diabetic rats, 60 mg/kg/day in drinking water, after 9 days of treatment): up to 90%
- time allodynia threshold (von Frey test) stayed significantly above the pretreatment level baseline after compound withdrawal ([2]; diabetic rats, after 9 days of 60 mg/kg/day): up to 5 days
- general appearance and/or health ([2]; diabetic rats, after treatment with 60 mg/kg/day stopped on day 9): improvements in general appearance and/or health
- paw pressure test threshold after compound withdrawal [2, 4]: returned to the pretreatment baseline
- plantar test threshold after compound withdrawal [2, 4]: returned to the pretreatment baseline

Reference: US20160221974A1, “SODIUM CHANNEL MODULATORS FOR THE TREATMENT OF PAIN AND DIABETES” (CHROMOCELL CORPORATION, priority 2013, published 2016)
